Experiment: Human HepG2 cell viability assay in 384 well format
Assay type: toxicity, cell-based
Design: dose 125 nL, time 70.5 hour; cytotoxicity at 70.5 h: concentration not given beside the values
Details: HepG2 cells, read-out: Inhibition

Row | SMILES | cytotoxicity at 70.5 h
1 | O=C(Nc1ccnn1Cc1ccc(Cl)cc1)C1CCS(=O)(=O)C1 (configuration not stated) | -8.12%
2 | Cc1cc(CN2CCN(CC(O)c3cccc(F)c3)CC2)no1 (configuration not stated) | -4.25%
3 | Cc1nc(C)c(C)c(N2CCC3(CCOC3)C2)n1 (configuration not stated) | 17%
4 | COCCn1cc(NC(=O)NC(C)c2ccc(Cl)s2)cn1 (configuration not stated) | -3.34%
5 | CCCc1nc(N[C@H]2COC[C@@H]2N2CCCCC2)c2cnn(C)c2n1 | -13.5%
6 | Cn1nnnc1SCCC(=O)NCC1Cc2ccccc2O1 (configuration not stated) | -23.7%
7 | CCc1nnc(CSc2ccccn2)o1 | -9.38%
8 | CCn1nc(C)c2nc(C(C)C)nc(N3CCC(O)CC3)c21 | -15.2%
9 | CC(C)Cn1nc(-c2ccc(C(=O)O)cc2)cc1-c1ccc(F)cc1 | -5.39%
10 | CCOCc1nc2c(c(N3CCN4CCCC4C3)n1)CCNCC2 (configuration not stated) | -13.6%
11 | CC(=O)N1CCc2c(nc(N(C)C)nc2N(C)CC2CCCO2)C1 (configuration not stated) | -6.61%
12 | Cc1cc(C(F)(F)F)nc(CCNc2nc(C)nc3c2cnn3C)n1 | -4.44%
13 | O=C(Cc1cccnc1)N1CCC2(CCN(C3CCOC3)CC2)C1 (configuration not stated) | 20.9%
14 | COc1ccc(F)cc1C(C)NC(=O)Nc1nncs1 (configuration not stated) | 4.1%
15 | CCC(NC(=O)CC1CCN(C(C)C)CC1)c1cn2cccnc2n1 (configuration not stated) | 1.45%
16 | CNC(=O)CN1CCC(NC(=O)N(C)Cc2c(C)noc2C)CC1 | 26.1%
17 | Cc1ccc(N2C[C@H](C(=O)NCC3CC3)[C@@H]3CCO[C@@H]3C2)nn1 | -9.32%
18 | CN(C)C(=O)N1CCN(Cc2noc(Cc3ccccc3)n2)CC1 | -5.82%
19 | CN(C)c1ccc(-c2cc(=O)n3c(n2)CCCCC3)cc1 | -11%
20 | Cc1ccccc1CN1CCCN(C2CCOC2=O)CC1 (configuration not stated) | 3.44%
21 | COCCCN1C(=O)CC[C@H]2CN(Cc3cc4ccccc4o3)CC[C@H]21 | -1.98%

Row | SMILES | cytotoxicity at 70.5 h
22 | Cc1cn[nH]c1C1COCCN1C(=O)c1ccc2[nH]nnc2c1 (configuration not stated) | -4.19%
23 | CCN(C)S(=O)(=O)N(CC)Cc1cccc(-c2ccncc2)c1 | -4.01%
24 | CS(=O)(=O)N1CCc2ncc(CNC(=O)C3CCC3)n2CC1 | -1.87%
25 | OCCc1ccccc1-n1ccnc1-c1cn(C2CCNCC2)nn1 | 27.2%
26 | Nc1c(N2CCCCC2)ncnc1N1CCOCC1 | 1.26%
27 | N#Cc1c(N)nc2c(c1-c1c[nH]nc1C1CCCCC1)CC(N)CC2 (configuration not stated) | 22.4%
28 | NC(=O)c1noc(Cn2ncc3ccccc3c2=O)n1 | 12.9%
29 | CC(=O)N1CCC(Nc2ccc(Br)cc2C#N)C1 (configuration not stated) | 4.92%
30 | O=C1CCC2(CCCN(C(=O)c3cccnc3)CC2)N1 (configuration not stated) | -3.4%
31 | CC(C)(C)n1cc(C(=O)N2CCN(Cc3cccnc3)CC2)cn1 | -7.69%
32 | Cc1cc(N2CCOC(C(F)(F)F)C2)nc(-c2ccccc2)n1 (configuration not stated) | -24.8%
33 | COCCn1/c(=N/C(=O)C(C)C)sc2cc(Cl)ccc21 | 21.1%
34 | CCOC(=O)C1(Cc2cccc(OC)c2)CCN(Cc2ncc[nH]2)CC1 | -8.46%
35 | Cc1noc(C)c1C(=O)NCc1ccnc(OCC(F)(F)F)c1 | -0.701%
36 | CC[C@H]1COCCN1C(=O)c1cnc(C(C)C)nc1C | 16.6%
37 | N#Cc1cc(S(N)(=O)=O)ccc1NC1CCc2ccc(F)cc21 (configuration not stated) | 7.54%
38 | COCCN1C(=O)[C@H]2CC[C@@H]1CN(c1nccc(C)n1)C2 | -9.1%
39 | Cc1nccn1-c1ccc(C(C)NCCC(C)C)cc1 (configuration not stated) | -1.85%
40 | CN(C1CCN(c2ccccn2)CC1)S(=O)(=O)c1cccc(F)c1 | 2.86%
41 | O=C(CCc1cc(Cl)no1)N1CCCCC1CCn1ccnc1 (configuration not stated) | -5.27%
42 | COCC(=O)NCCCn1nc2ccccn2c1=O | -15.5%

Row | SMILES | cytotoxicity at 70.5 h
43 | CCN1CCN(C2CCN(CC(=O)NCC(F)(F)F)CC2)C1=O | -6.43%
44 | CCOC(=O)c1ccc(CNC(=O)c2ccc(Cl)cn2)o1 | -6.63%
45 | N#Cc1ccc(CN(CCF)Cc2cccc(F)c2)cc1 | 6.81%
46 | CCc1nc(CN2CCCN(C(=O)C3CCOC3)CC2)cs1 (configuration not stated) | 7.45%
47 | Cc1nn(C)c(Cl)c1C1CCCN1CC(=O)NC1CCCCC1 (configuration not stated) | 5.03%
48 | O=C(NC1CC1)[C@H]1C[C@@H]2CCN(Cc3ccc4c(c3)OCO4)C[C@@H]2O1 | -12.5%
49 | O=C(NCc1ccco1)[C@H]1CC[C@@H]2[C@@H](CCN2C2CCC2)O1 | -15.1%
50 | Cc1cnn(CC2CN(Cc3cccc(C(=O)N(C)C)c3)CCO2)c1 (configuration not stated) | 3.78%
51 | Cc1nc(CN2CCC(N(C)Cc3noc(C4CC4)n3)C2)oc1C (configuration not stated) | 4.91%
52 | Cc1ccc(S(=O)(=O)N2CSCC2C(=O)N(C)C2CC2)cc1Cl (configuration not stated) | -12.2%
53 | Cc1nc(CO[C@@H]2CC[C@H]3[C@H]2OCCN3Cc2cccnc2)cs1 | 14.5%
54 | CCNC(=O)NC(=O)CNC(C)(CC)c1nc(C)cs1 (configuration not stated) | -4.63%
55 | CCN1CCN(C(=O)c2cnc3c(cnn3C3CCCC3)c2)CC1 | -6.55%
56 | CC(C)c1nccn1C1CCCN(C(=O)c2ccsc2)C1 (configuration not stated) | -2.65%
57 | C=Cc1cccc(CN(Cc2cnn(C)c2)C2CC2)c1 | -9.54%
58 | CCN1CCN(Cc2csc(C(C)C)n2)CC1 | -8.86%
59 | COCc1cc(NCC(F)(F)F)n2nccc2n1 | -12.3%
60 | COc1cc(C)nc(N2CCN(C(=O)CCc3ccco3)CC2)n1 | -2.64%
61 | CC(COc1ccccc1)NCc1cn2ccccc2n1 (configuration not stated) | -4.87%
62 | COc1c(C(=O)NC(C)CC(=O)c2cccs2)c(C)nn1C (configuration not stated) | -0.066%
63 | CCN(CC1CCOC1)C(=O)c1ccccc1S(=O)(=O)CC (configuration not stated) | 10.2%

Row | SMILES | cytotoxicity at 70.5 h
64 | O=S(=O)(c1ccccc1)N1CCC[C@]2(C[C@H](OCC3CC3)CO2)C1 | -9.34%
65 | CCOCC(O)CN1CCN(C(=O)c2ccccc2Cl)CC1 (configuration not stated) | -2.72%
66 | O=C(Cc1cccc(F)c1)N1CCn2cc(Cn3cccn3)nc2C1 | -10.7%
67 | Fc1cccc(N2CCc3ncnc(C4CC4)c3CC2)c1 | -4.85%
68 | O=C(N[C@@H]1CNCCC[C@H]1O)c1ccc(OCc2ccccc2)cc1 | -2.25%
69 | CC(C)NC(=O)NC(C)c1nc(-c2ccccc2)cs1 (configuration not stated) | -6.77%
70 | Cc1cs/c(=N\C(=O)Cn2nc(N3CCOCC3)ccc2=O)[nH]1 | -13.8%
71 | Cc1cc(CN(C)C(=O)NCc2ccnc(SC(C)(C)C)c2)no1 | -9.52%
72 | Cc1nc(CNC(=O)NCc2ccc(OCC3CC3)nc2)cs1 | -5.23%
73 | CCc1cnc(C)nc1NC(CC)c1cnn(C)c1 (configuration not stated) | -2.39%
74 | COc1ccc(NC(=O)CN2CCCCC2C2OCCO2)cc1 (configuration not stated) | -4.96%
75 | Cc1cc(C)c2nc(C)cc(C(=O)NCc3csc(N(C)C)n3)c2c1 | 27.3%
76 | CCn1ncc2c1C(COC)CN(Cc1ccc(F)cc1)C2 (configuration not stated) | 2.06%
77 | Cc1ccc([C@@H]2CN(S(=O)(=O)c3cccs3)C[C@H]2N(C)C)cc1 | -2.64%
78 | CC(C)(C)CN[C@@H]1CO[C@H](CNC(=O)C2CCCC2)[C@H]1O | -14%
79 | CC(C)CC(=O)NCCCn1cncn1 | 16.9%
80 | N#Cc1ccc(CNc2cnn(CCN3CCOCC3)c2)cc1 | 42.1%
81 | COCc1ncc(CN(Cc2ccncc2)Cc2ccc(C)s2)cn1 | -6.86%
82 | Cc1nn(C)cc1C1=NS(=O)(=O)N(C)C(C(=O)Nc2ccc(Cl)cc2)=C1 | 1.32%
